Results from article PMC10657444, “Design and evaluation of tadpole-like conformational antimicrobial peptides” (Communications Biology, 2023).
Values after ≈ are worked out from the molar mass of the structure shown. Values joined by “and” are separate entries in the source; they are usually repeats but may differ in a detail not shown here. Equal entries are not always repeated. Where two headings read alike, the source gives them in different places. Residues, ends and D or L forms follow the SMILES beside them.

Columns and labels:
[1] = test system: MRSA 3393; format: cell-based, Staphylococcus aureus; details: 3393
Text: (§1) Bacteria were cultivated in Luria-Bertani (LB) broth.

[2] = test system: MRSA ATCC 43300; format: cell-based, Staphylococcus aureus; details: ATCC 43300
Text: as §1

[3] = test system: MRSA USA 300; format: cell-based, Staphylococcus aureus
Text: as §1

[4] = test system: MRSA USA 300; format: cell-based, Staphylococcus aureus; remark: listed apart in the source
Protocol: The stability of peptides in different media was assessed using the MIC assay described above. Here, the stability of HT2 and RI-HT2 in serum, salt, and different pH were analyzed using methods previously described with some modifications. For serum stability, a solution of 10% or 20% fetal bovine serum (FBS) was made by diluting fetal bovine serum with phosphate buffer saline (PBS). HT2 and RI-HT2 were added for a final concentration of 160 µg/mL of peptide in the FBS solution, and incubation 2 h. Suspension containing no peptide was considered the negative control. The MIC of HT2 and RI-HT2 against MRSA USA 300 and K. pneumoniae ATCC 700603 were measured. For the acid stability assays, the peptides were incubated with different pH values of PBS (pH = 5.5 or 6.4) at 37 °C. These peptide mixtures were then serially diluted in a 96-well plate for the evaluation of antimicrobial activity against bacterial strains. Similarly, for salt stability, the peptides were assessed for their antimicrobial activity against MRSA USA 300 and K. pneumoniae ATCC 700603 in the presence of 150 mM NaCl.

[5] = test system: MRSA USA 300; assay: Membrane depolarization assay, DiSC3(5); format: cell-based, Staphylococcus aureus
Protocol: MRSA USA 300 and K. pneumoniae ATCC 700603 were inoculated into 5 mL of LB and shaken at 37°C and 225 rpm to OD600 ≈ 0.5 (i.e., mid-logarithmic phase). Bacteria were collected by centrifugation at 8000 rpm for 5 min, and washed twice with assay buffer (5 mM HEPES, 20 mM glucose, 10 mM KCl, pH 7.2). Bacteria were resuspended in the assay buffer to OD595 ≈ 0.1. DiSC3(5) was added to the cells at final concentration of 0.3 µM, wrapped with aluminum foil, and incubated at 37°C, until a stable fluorescence was observed. Two microliter of compound or DMSO were transferred into 96-well black walled polystyrene plates, to which was added 98 µL per well of the dye-saturated bacterial cells to initiate the reaction. The final concentration of HT2 and RI-HT2 were 1 ×, 2 ×, 4 × and 8 × MIC. Plates were immediately read on an Envison at λex = 622 nm/ λem = 670 nm with a kinetic program (reading every 1 min for 10 min) until the maximal intensity achieved was observed.

[6] = test system: MRSA USA 300; assay: Membrane permeability, SYTOX Green; format: cell-based, Staphylococcus aureus
Protocol: (§2) Fluorescent probe SYTOX^TM Green (Invitrogen/ Life Technologies, S7020) was used to analyze the effect of HT2 and RI-HT2 on membrane permeability of MRSA USA 300 and K. pneumoniae ATCC 700603 as described elsewhere. SYTOX^TM Green is a DNA binding dye that is fluorescent when bound to nucleic acids and only enters cells with compromised plasma membranes. MRSA USA 300 and K. pneumoniae ATCC 700603 were cultured in LB broth to mid log phase at 37 °C and washed with PBS and resuspended (OD595 ≈ 0.1) in the same buffer. SYTOX^TM Green was added into the cell suspension with a final concentration of 5 μM and being kept in dark for 20 min. 98 µL pre-treated cell suspension was transferred into wells of 96-well glass black plates. Then, 2 µL of compound or DMSO were added to initiate the reaction. The final concentrations of HT2 and RI-HT2 were 1 ×, 2 ×, 4 × and 8 × MIC. Fluorescence strength was measured with excitation/emission wavelength of 485/528 nm every 5 min for 60 min.

[7] = test system: K. pneumoniae ATCC 700603; assay: Membrane permeability, SYTOX Green; format: cell-based, Klebsiella pneumoniae
Protocol: as §2

Compound: CC[C@H](C)[C@H](NC(=O)[C@H](CCCNC(=N)N)NC(=O)[C@H](CCCNC(=N)N)NC(=O)[C@H](CC(C)C)NC(=O)[C@H](Cc1ccccc1)NC(=O)[C@@H](N)CCCNC(=N)N)C(=O)N[C@@H](Cc1ccccc1)C(=O)N[C@@H](Cc1ccccc1)C(=O)N[C@@H](Cc1ccccc1)C(=O)N[C@@H](Cc1ccccc1)C(N)=O [HT2] (H-RFLRRIFFFF-NH2)
- MIC Gram+ MRSA 3393 [1]: 1.57 µM (≈ 2.27 µg/mL)
- MIC Gram+ MRSA ATCC 43300 [2]: 1.57 µM (≈ 2.27 µg/mL)
- MIC Gram+ MRSA USA 300 [3]: 1.57 µM (≈ 2.27 µg/mL)
- MIC against MRSA USA 300 ([4]; USA 300): 3.13 µM (≈ 4.53 µg/mL)
- MIC against MRSA USA 300 ([4]; USA 300, pH 5.5): 3.13 µM (≈ 4.53 µg/mL)
- MIC against MRSA USA 300 ([4]; USA 300, pH 6.4): 3.13 µM (≈ 4.53 µg/mL)
- concentration at which DiSC3(5) fluorescence intensity changed significantly [5]: 4 × MIC
- Fluorescence intensity ([6]; 2 × MIC, time 25 min): 31855 and 32475 and 30920
- Fluorescence intensity ([6]; 2 × MIC, time 30 min): 32738 and 33363 and 31902
- Fluorescence intensity ([6]; 2 × MIC, time 35 min): 33433 and 34141 and 32365
- Fluorescence intensity ([6]; 2 × MIC, time 40 min): 33952 and 34791 and 32993
- Fluorescence intensity ([6]; 2 × MIC, time 45 min): 34234 and 35153 and 33304
- Fluorescence intensity ([6]; 2 × MIC, time 50 min): 34616 and 35530 and 33726
- Fluorescence intensity ([6]; 2 × MIC, time 55 min): 35021 and 36015 and 33983
- Fluorescence intensity ([6]; 2 × MIC, time 60 min): 35210 and 36080 and 33852
- Fluorescence intensity ([6]; 4 × MIC, time 25 min): 58334 and 57993 and 60104
- Fluorescence intensity ([6]; 4 × MIC, time 30 min): 59686 and 59179 and 61418
- Fluorescence intensity ([6]; 4 × MIC, time 35 min): 60470 and 60307 and 62172
- Fluorescence intensity ([6]; 4 × MIC, time 40 min): 61373 and 61097 and 62778
- Fluorescence intensity ([6]; 4 × MIC, time 45 min): 61952 and 61758 and 63164
- Fluorescence intensity ([6]; 4 × MIC, time 50 min): 62152 and 62388 and 63395
- Fluorescence intensity ([6]; 4 × MIC, time 55 min): 62374 and 62948 and 63676
- Fluorescence intensity ([6]; 4 × MIC, time 60 min): 62761 and 62954 and 64070
- Fluorescence intensity ([6]; 8 × MIC, time 0 min): 1486
- Fluorescence intensity ([6]; 8 × MIC, time 25 min): 61022 and 63005 and 63531
- Fluorescence intensity ([6]; 8 × MIC, time 30 min): 61916 and 63588 and 64175
- Fluorescence intensity ([6]; 8 × MIC, time 35 min): 62425 and 64473 and 64696
- Fluorescence intensity ([6]; 8 × MIC, time 40 min): 62708 and 64561 and 64714
- Fluorescence intensity ([6]; 8 × MIC, time 45 min): 62984 and 64891 and 65072
- Fluorescence intensity ([6]; 8 × MIC, time 50 min): 63293 and 64293 and 63594
- Fluorescence intensity ([6]; 8 × MIC, time 55 min): 63589 and 64553 and 65531
- Fluorescence intensity ([6]; 8 × MIC, time 60 min): 63666 and 65987 and 65753
- Fluorescence intensity ([6]; MIC, time 0 min): 1304 and 1201 and 1387
- Fluorescence intensity ([6]; MIC, time 25 min): 17216 and 17215 and 16315
- Fluorescence intensity ([6]; MIC, time 30 min): 17367 and 17359 and 16618
- Fluorescence intensity ([6]; MIC, time 35 min): 17590 and 17525 and 16584
- Fluorescence intensity ([6]; MIC, time 40 min): 17600 and 17633 and 16680
- Fluorescence intensity ([6]; MIC, time 45 min): 17644 and 17567 and 16788
- Fluorescence intensity ([6]; MIC, time 50 min): 17792 and 17686 and 16728
- Fluorescence intensity ([6]; MIC, time 55 min): 17738 and 17641 and 16766
- Fluorescence intensity ([6]; MIC, time 60 min): 17754 and 17734 and 16661
- time to maximum SYTOX Green fluorescence intensity ([6]; different concentrations): ≤ 10 min
- Fluorescence intensity ([7]; 2 × MIC, time 0 min): 501695 and 509033 and 502622
- Fluorescence intensity ([7]; 2 × MIC, time 5 min): 1090890 and 1043729 and 1064139
- Fluorescence intensity ([7]; 2 × MIC, time 10 min): 1729072 and 1765938 and 1671967
- Fluorescence intensity ([7]; 2 × MIC, time 15 min): 2450918 and 2522662 and 2381578
- Fluorescence intensity ([7]; 2 × MIC, time 20 min): 3050480 and 3158194 and 2985766
- Fluorescence intensity ([7]; 2 × MIC, time 25 min): 3669210 and 3714426 and 3535044
- Fluorescence intensity ([7]; 2 × MIC, time 30 min): 4083450 and 4189312 and 4054249
- Fluorescence intensity ([7]; 2 × MIC, time 35 min): 4565952 and 4682018 and 4543315
- Fluorescence intensity ([7]; 4 × MIC, time 0 min): 525974 and 544262 and 540364
- Fluorescence intensity ([7]; 4 × MIC, time 5 min): 1702985 and 1566300 and 1596913
- Fluorescence intensity ([7]; 4 × MIC, time 10 min): 2584709 and 2629728 and 2589896
- Fluorescence intensity ([7]; 4 × MIC, time 15 min): 4158305 and 4176033 and 4135763
- Fluorescence intensity ([7]; 4 × MIC, time 20 min): 5327990 and 5380046 and 5341458
- Fluorescence intensity ([7]; 4 × MIC, time 25 min): 6471332 and 6483549 and 6409400
- Fluorescence intensity ([7]; 4 × MIC, time 30 min): 7570513 and 7493394 and 7434627
- Fluorescence intensity ([7]; 4 × MIC, time 35 min): 8228675 and 8284610 and 8343092
- Fluorescence intensity ([7]; 8 × MIC, time 0 min): 870465 and 760375 and 885415
- Fluorescence intensity ([7]; 8 × MIC, time 5 min): 1479590 and 1252173 and 1198504
- Fluorescence intensity ([7]; 8 × MIC, time 10 min): 2304082 and 2051490 and 2261553
- Fluorescence intensity ([7]; 8 × MIC, time 15 min): 3691170 and 2983585 and 3730581
- Fluorescence intensity ([7]; 8 × MIC, time 20 min): 5088194 and 4586923 and 5243088
- Fluorescence intensity ([7]; 8 × MIC, time 25 min): 6892750 and 6059584 and 6984752
- Fluorescence intensity ([7]; 8 × MIC, time 30 min): 8250478 and 7253838 and 8382724
- Fluorescence intensity ([7]; 8 × MIC, time 35 min): 8870007 and 7712378 and 8970308
- Fluorescence intensity ([7]; 8 × MIC, time 40 min): 10334018
- Fluorescence intensity ([7]; MIC, time 0 min): 550162 and 549500 and 565924
- Fluorescence intensity ([7]; MIC, time 5 min): 788019 and 747687 and 700922
- Fluorescence intensity ([7]; MIC, time 10 min): 953632 and 962086 and 882779
- Fluorescence intensity ([7]; MIC, time 15 min): 1211256 and 1113347 and 1136029
- Fluorescence intensity ([7]; MIC, time 20 min): 1429978 and 1306982 and 1354221
- Fluorescence intensity ([7]; MIC, time 25 min): 1431312 and 1479927 and 1452172
- Fluorescence intensity ([7]; MIC, time 30 min): 1813062 and 1687978 and 1751083
- Fluorescence intensity ([7]; MIC, time 35 min): 1966664 and 1821317 and 1900107
- Fluorescence intensity ([7]; MIC, time 40 min): 2166119 and 2083647 and 2111537
- time to highest SYTOX Green fluorescence intensity ([7]; dose-dependent): ≤ 40 min
